Laboratory results as given in patent US6271254A, “Pharmaceutical compositions containing R-α-lipoic acid or S-α-lipoic acid as active ingredient” (ASTA Pharma Aktiengesellschaft, priority 1989, dated 2001).

Tests used:
rat [1] = assay: carragheen-induced oedema test in the rat; assay type: in vivo; conditions: for ED50: 50% inhibition of paw oedema, read-out: anti-inflammatorily active ED50
Protocol: Caragheen-induced edema test for anti-inflammatory activity:
The investigation is conducted in carragheen-induced edema of the rat paw after the method of MOERSDORF and co-workers (Arch.int.Pharmacodyn. 192, 111-127 (1971)). The anti-inflammatory activity is, for example, given as inhibition of edema in percent as compared to the untreated control group. Application is oral or intraperitoneal in all experiments. The substance is administered orally or intraperitoneally 1 hour after triggering the inflammation. The ED50 is the dose in mg/kg at which there is 50% inhibition of the paw oedema.

mouse = assay: acid writhing pain test in the mouse (acetic acid test); assay type: in vivo; conditions: po, per os, 50% inhibition of writhing syndrome, read-out: analgesically active ED50
Excerpt: Acetic acid test (writhing test) in the mouse Method: In the acetic acid test after KOSTER et al. (Fed. Proc., Vol. 18, page 412 (1959)) the pain stimulus triggered by an intraperitoneal injection of 1% acetic acid. The pain reaction is expressed in the form of the characteristic stretching of the animals ("writhing syndrome") which continues at irregular time intervals form some time after injection of the acetic acid. The dose-dependent inhibition of the frequency of the stretching movement as compared to an untreated control group is expressed in percent as analgesic activity. Evaluation is by determination type the ED50 (Method of linear regression). The ED50 is the dose in mg/kg at which there is a 50% inhibition of the "writhing syndrome".

rat [2] = assay: Randall-Selitto inflammatory pain test in the rat; assay type: in vivo; conditions: po, per os; for ED50: 0.5 h, Randall-Selitto test, rat, 50% analgesic activity, read-out: analgesically effective ED50
Protocol: Randall-Selitto test (inflammatory pain in the rat)
By analogy with the method according to RANDALL and SELITTO (L. O. Randall and J. Selitto, Arch. int. Pharmacodyn. Vol. 111, pages 409-418 (1957)), rats receive subplantar injections of 0.1 ml of a 20% (in demineralized water) brewer's yeast suspension into the right back paw. 2 1/2 hours thereafter the test substances are administered and 30 minutes thereafter the pain threshold (in grams) is measured as pain in the inflamed paw, using a commercially available algesia meter. The criterion is the defense reaction shown by the animals in pulling the paw away and/or freeing themselves from the research worker's grip. The activity of the substance is measured in the form of the increase in the pain threshold as compared to an untreated control group. The course of the experiment differs from that in the original method in that the substances are only given 21/2 hours after provocation of the edema and not simultaneously therewith. In so doing the intention is to prevent the development of the edema being inhibited by a possible anti-inflammatory activity and masking or feigning analgesia.
The ED50 is determined using the linear regression method. The ED50 here is the dose in mg/kg it which mathematically there is a 50% analgesic activity.

[3] = analgesic and anti-inflammatory activity compared with the racemate (general statement, no test named); assay type: in vivo; conditions: vs racemate
[4] = acute toxicity in the mouse (method of LITCHFIELD and WILCOXON); conditions: in vivo, oral administration
Protocol: The acute toxicity of R-α-lipoic acid and S-α-lipoic acid in the mouse (expressed as the LD50 mg/kg; method of LITCHFIELD and WILCOXON, J. Pharmacol. Exp Ther. 95, 99 (1949)), is for example in excess of 100 mg/kg in the case of oral administration.

[5] = system: human immunodeficiency virus HIV (HIV-1, HIV-2); assay: growth-inhibiting activity against retroviruses, in particular HIV (HIV-1, HIV-2); assay type: cell-based; conditions: in vitro; in words
Excerpt: 3. Determination of reverse transcriptase in culture supernatant
4. Determination of p24 antigen in culture supernatant
In the case of the in vitro experiments the active ingredient is used, for example in benzyl alcohol as solvent.
The following substrates may, for example, be used for the in vitro investigations of the replication behavior of retroviruses, in particular HIV:
1. Virus-containing RPMI 1640 medium, for example 1X liquid 041-01875 (synthetic culture medium from Gibeo according to Moore, Gerner and Franklin, H. A. (1967), J.A.M.A. 199; 519) in a concentration of 2×10^3 -1×10^4 infectious units (PFU)/ml
2. The cell lines Jurkat Clone E6-1, Sup T1 and HeLa CT4.

[6] = analgesic, anti-inflammatory, anti-arthrotic and cytoprotective activity in investigatory models; assay type: in vivo, mouse, rat, chicken; conditions: in words
Excerpt: The optical isomers of α-lipoic acid display a good analgesic, anti-inflammatory, anti-arthrotic and cytoprotective activity in, for example, the following investigatory models:
MgSO4 writhing test in the mouse according to GYIRES et al. (Arch.int.pharmacodyn.therap. 267, 131-140 (1984))
Adjuvans arthritis in the rat according to NEWBOULD (Brit.J.Pharmacol. 21, 127-136 (1963))
TPA- or arachidonic acid-induced mouse ear oedema according to YOUNG et al. (J.Invest.Dermatol. 80, 48-52 (1983))
Na-mono-iodazetate-induced arthrosis in rats or chickens according to KALBHEN in: Arthrosis deformans, Eular-Verlag, Basel/Switzerland, 1982
TPA-induced arthrosis in rats according to WEISCHER (Agents and Actions 23, 1/2 (1988))
Intestinal ulcerations in rats according to DEL SOLDATO (Agents and Actions 16, 393-396 (1985))
Colitis-model in the rat according to WEISCHER at al (Agents and Actions, vol. 26, 1/2, page 222 to 223, (1989))
Ethanol-ulcer model in the rat (determination for example of a cytoprotective activity).

[7] = po, carragheen-induced oedema, rat, per os

SMILES | ED50 (rat [1]; [7]) | ED50 (mouse) | ED50 (rat [2]) | anti-inflammatory activity stronger than that of the racemate (factor) [3] | LD50 [4] | minimal effective dose (rat [1]; Rattus norvegicus, po, carragheen-induced oedema test, per os, read-out: minimum anti-inflammatorily effective dose) | anti-inflammatory activity superior to that of racemic α-lipoic acid (factor) (rat [1]; carragheen-induced oedema, rat, peroral application) | growth-inhibiting activity against retroviruses, in particular HIV (HIV-1, HIV-2) [5] | antinociceptive and cytoprotective activity (beside anti-inflammatory and anti-arthritic main activity) [6] | minimal effective dose (rat [2]; Rattus norvegicus, Randall-Selitto pain test, read-out: minimum analgesically effective dose) | anti-inflammatory and cytoprotective activity (beside analgesic main activity) [6]
O=C(O)CCCCC1CCSS1 (racemic) [racemate, 1,2-dithiacyclopentane-3-valeric acid, reference compound] | 49.7 mg/kg | 51.3 mg/kg | 45.9 mg/kg |  |  |  |  |  |  |  | 
O=C(O)CCCC[C@@H]1CCSS1 [R-α-lipoic acid] | 4.9 mg/kg |  |  | 10 factor | > 100 mg/kg | 1 mg/kg | ≥ 10 factor | growth-inhibiting activity | to a lesser extent |  | 
O=C(O)CCCC[C@H]1CCSS1 [S-α-lipoic acid] |  | 10.2 mg/kg | 7.5 mg/kg |  | > 100 mg/kg |  |  | growth-inhibiting activity |  | 1 mg/kg | to a lesser extent
